# Experimental data reported in US20240417486A1, “ASYMMETRIC BIS-BENZIMIDAZOLE STING AGONIST IMMUNOCONJUGATES AND USES THEREOF” (BOLT BIOTHERAPEUTICS, INC., priority 2021, published 2024).
# Biological target: human STING WT (6His-tagged STING protein) (Homo sapiens (Human), UniProt Q86WV6)
# Experiment: HTRF binding assay (STING binding assay)
# Details: inhibition of d2-labeled 2',3'-cGAMP binding to 6His-tagged STING
# Description: Example 202 HTRF Binding Assay
# Asymmetric bis-benzimidazole compounds (BBI) of the invention were assessed in a biochemical homogeneous time resolved fluorescence (HTRF) binding assay adapted from the human STING WT binding assay (“HTRF, A guide to Homogeneous Time Resolved Fluorescence”, (2021) PerkinElmer Cisbio; Mathis, G. Clinical Chemistry, 41(9):1391-1397). Briefly, 6His-tagged STING protein was incubated with terbium cryptate-labeled anti-6His antibody, d2-labeled 2′,3′-cGAMP, and varying concentrations of test articles in a 384-well plate format. Donor and acceptor emission signals were measured for each well by plate reader at […], respectively, and the ratio of the signals used to calculate percent inhibition of d2-labeled 2′,3′-cGAMP, cyclic dinucleotide binding.
# human STING WT (6His-tagged STING protein), sequence (Q86WV6 whole entry): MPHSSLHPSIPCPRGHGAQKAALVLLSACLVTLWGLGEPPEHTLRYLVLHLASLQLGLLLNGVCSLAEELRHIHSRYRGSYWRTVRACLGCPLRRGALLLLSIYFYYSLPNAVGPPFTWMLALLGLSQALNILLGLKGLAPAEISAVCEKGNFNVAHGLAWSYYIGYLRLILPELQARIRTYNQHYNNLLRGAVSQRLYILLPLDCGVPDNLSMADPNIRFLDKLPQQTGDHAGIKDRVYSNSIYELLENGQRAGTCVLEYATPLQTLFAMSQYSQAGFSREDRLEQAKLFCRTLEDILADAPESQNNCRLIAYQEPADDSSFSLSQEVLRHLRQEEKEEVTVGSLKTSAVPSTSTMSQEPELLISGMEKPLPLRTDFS
row,Compound,IC50
1,CCn1nc(C)cc1C(=O)Nc1nc2cc(C(N)=O)cc(OCCCn3c(NC(=O)c4cc(C)nn4CC)nc4cc(C(N)=O)cc(OCCCN5CCNCC5)c43)c2n1C [BBI-6],51 nM
2,CCn1nc(C)cc1C(=O)Nc1nc2cc(C(N)=O)cc(OC/C=C/Cn3c(NC(=O)c4cc(C)nn4CC)nc4cc(C(N)=O)cc(OCCCN5CCNCC5)c43)c2n1C [BBI-7],150 nM
3,"CCn1nc(C)cc1C(=O)Nc1nc2cc(C(N)=O)cc(OCCCCn3c(NC(=O)c4cc(C)nn4CC)nc4cc(C(N)=O)cc(OCCCN5CCNCC5)c43)c2n1C [BBI-3, 1-(4-((5-carbamoyl-2-(1-ethyl-3-methyl-1H-pyrazole-5-carboxamido)-1-methyl-1H-benzo[d]imidazol-7-yl)oxy)butyl)-2-(1-ethyl-3-methyl-1H-pyrazole-5-carboxamido)-7-(3-(piperazin-1-yl)propoxy)-1H-benzo[d]imidazole-5-carboxamide]",250 nM
4,"CCn1nc(C)cc1C(=O)Nc1nc2cc(C(N)=O)cc(OCCCCn3c(NC(=O)c4cc(C)nn4CC)nc4cc(C(N)=O)cc(OC)c43)c2n1C [BBI-2, 1-[4-[6-carbamoyl-2-[(2-ethyl-5-methyl-pyrazole-3-carbonyl)amino]-3-methyl-benzimidazol-4-yl]oxybutyl]-2-[(2-ethyl-5-methyl-pyrazole-3-carbonyl)amino]-7-methoxy-benzimidazole-5-carboxamide]",73 nM
5,CCn1nc(C)cc1C(=O)Nc1nc2cc(C(N)=O)cc(OCCn3c(NC(=O)c4cc(C)nn4CC)nc4cc(C(N)=O)cc(OC)c43)c2n1C [BBI-5],210 nM
6,"CCn1nc(C)cc1C(=O)Nc1nc2cc(C(N)=O)cc(OCCCn3c(NC(=O)c4cc(C)nn4CC)nc4cc(C(N)=O)cc(OC)c43)c2n1C [BBI-1, 1-(3-((5-carbamoyl-2-(1-ethyl-3-methyl-1H-pyrazole-5-carboxamido)-1-methyl-1H-benzo[d]imidazol-7-yl)oxy)propyl)-2-(1-ethyl-3-methyl-1H-pyrazole-5-carboxamido)-7-methoxy-1H-benzo[d]imidazole-5-carboxamide]",57 nM
7,CCn1nc(C)cc1C(=O)Nc1nc2cc(C(N)=O)cc(OCCCn3c(NC(=O)c4cc(C)nn4CC)nc4cc(C(N)=O)ccc43)c2n1C [BBI-4],440 nM
